Results reported in patent publication US8865734B2 (priority 2010, dated 2014).
In brackets after ≈: the same amount, converted by molar mass.

Experiments:
[1] = system: M. tuberculosis inside the host macrophage; test: QIM: Quantification of Intracellular Mycobacteria (intracellular growth assay, phenotypic cell-based); details: Mycobacterium tuberculosis; MIC, 80% bacterial growth inhibition; intracellular growth; read-out: QIM
From the text: Accordingly, a phenotypic cell-based assay, suitable for high throughput screening, which allows for the search of compounds that would prevent M. tuberculosis multiplication inside the host macrophage was utilized (WO2010003533A2), overcoming many of the numerous and burdensome steps involved in previous methodologies (Arain et al., 1996).
A 120,000 small molecule compound library was screened using a validated phenotypic cell-based assay (WO2010003533A2). Active compounds from the primary screen were confirmed via dose response in the intracellular (QIM) assay and an in vitro (QUM) assay, wherein the abbreviation “QIM” stands for Quantification of Intracellular Mycobacteria and the abbreviation “QUM” stands for Quantification of in vitro grown Mycobacteria. […] The MIC is the minimum concentration of compound required to obtain 80% bacterial growth inhibition.
The imidazopyridine compounds (scaffolds Ia and Ib; see Table 1) underwent derivatization according to the methods outlined below (Schemes 1-13). Resulting derivatives were examined for inhibitory activity (MIC) using the assays described above (Example 1) and the results are summarized in Table 1.

[2] = system: in vitro grown Mycobacteria (M. tuberculosis); test: QUM: Quantification of in vitro grown Mycobacteria (in vitro growth fluorescence assay); assay type: cell-based; details: Mycobacterium tuberculosis; MIC, 80% bacterial growth inhibition; in vitro growth; read-out: QUM
Summary of the method: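 Mycobacterium tuberculosis grown in vitro was quantified by fluorescence across compound dose responses. MIC is defined as the minimum concentration producing 80% growth inhibition.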

SMILES	MIC [1]	MIC [2]
Cc1nc2cc(-c3ccccc3)ccn2c1C(=O)NCc1ccccc1 [Compound 37, N-Benzyl-2-methyl-7-phenylimidazo[1,2-a]pyridine-3-carboxamide]	> 20 µM	> 20 µM
CCc1nc2ccc(Cl)cn2c1C(=O)NCc1ccc(OCc2ccc(F)cc2)cc1 [Compound 202, 6-Chloro-2-ethyl-N-(4-(4-fluorobenzyloxy)benzyl)imidazo[1,2-a]pyridine-3-carboxamide]	< 1 µM	< 1 µM
CCc1nc2cc(Cl)ccn2c1C(=O)NCc1ccc(C(C)(C)C)cc1 [Compound 92, N-(4-tert-Butylbenzyl)-7-chloro-2-ethylimidazo[1,2-a]pyridine-3-carboxamide]	< 1 µM	< 1 µM
Cc1nc2ccccn2c1C(=O)NCc1ccncc1 [Compound 14, 2-Methyl-N-(pyridin-4-ylmethyl)imidazo[1,2-a]pyridine-3-carboxamide]	> 20 µM	> 20 µM
CCc1nc2ccc(Cl)cn2c1C(=O)NCc1ccc2[nH]c(-c3ccc(OC(F)(F)F)cc3)nc2c1 [Compound 204, 6-Chloro-2-ethyl-N-((2-(4-(trifluoromethoxy)phenyl)-1H-benzo[d]imidazol-5-yl)methyl) imidazo[1,2-a]pyridine-3-carboxamide]	> 20 µM	> 20 µM
CCc1nc2cc(Cl)ccn2c1C(=O)NCc1ccc(-c2ccccc2Cl)cc1 [Compound 94, 7-Chloro-N-((2′-chlorobiphenyl-4-yl)methyl)-2-ethylimidazo[1,2-a]pyridine-3-carboxamide]	< 1 µM	< 1 µM
CCc1nc2cc(Cl)ccn2c1C(=O)NCc1ccc(Br)cc1 [Compound 101, N-(4-Bromobenzyl)-7-chloro-2-ethylimidazo[1,2-a]pyridine-3-carboxamide]	< 1 µM	1 to 20 µM (≈ 0.393 to 7.85 µg/mL)
O=C(NCc1ccccc1)c1c(C2CC2)nc2ccccn12 [Compound 50, N-Benzyl-2-cyclopropylimidazo[1,2-a]pyridine-3-carboxamide]	1 to 20 µM (≈ 0.291 to 5.83 µg/mL)	1 to 20 µM (≈ 0.291 to 5.83 µg/mL)
CCc1nc2cc(Cl)ccn2c1C(=O)NCc1ccc(N2CCN(C)CC2)cc1 [Compound 109, 7-Chloro-2-ethyl-N-(4-(4-methylpiperazin-1-yl)benzyl)imidazo[1,2-a]pyridine-3-carboxamide]	1 to 20 µM (≈ 0.412 to 8.24 µg/mL)	1 to 20 µM (≈ 0.412 to 8.24 µg/mL)
Cc1nc2ccccn2c1C(=O)NCC1CCCCC1 [Compound 18, N-(Cyclohexylmethyl)-2-methylimidazo[1,2-a]pyridine-3-carboxamide]	> 20 µM	> 20 µM
Cc1nc2cc(C#N)ccn2c1C(=O)NCc1ccccc1 [Compound 35, N-Benzyl-7-cyano-2-methylimidazo[1,2-a]pyridine-3-carboxamide]	> 20 µM	> 20 µM
CCc1nc2ccc(Cl)cn2c1C(=O)NCc1ccc(Cl)cc1 [Compound 70, 6-Chloro-N-(4-chlorobenzyl)-2-ethylimidazo[1,2-a]pyridine-3-carboxamide]	< 1 µM	< 1 µM
CCc1nc2ccc(Cl)cn2c1C(=O)N1CCC(OCc2ccc(OC(F)(F)F)cc2)CC1 [Compound 230, (6-Chloro-2-ethylimidazo[1,2-a]pyridin-3-yl)(4-(4-(trifluoromethoxy)benzyloxy)piperidin-1-yl)methanone]	> 20 µM	> 20 µM
CCc1nc2cc(Cl)ccn2c1C(=O)NCc1ccc(OCc2ccc(F)cc2)cc1 [Compound 203, 7-Chloro-2-ethyl-N-(4-(4-fluorobenzyloxy)benzyl)imidazo[1,2-a]pyridine-3-carboxamide]	1 to 20 µM (≈ 0.438 to 8.76 µg/mL)	1 to 20 µM (≈ 0.438 to 8.76 µg/mL)
CCc1nc2cc(Cl)ccn2c1C(=O)NCc1ccc(-c2ccccc2C(F)(F)F)cc1 [Compound 124]	< 1 µM	1 to 20 µM (≈ 0.458 to 9.16 µg/mL)
CCc1nc2ccc(Cl)cn2c1C(=O)NCc1ccc(Oc2ccccc2)cc1 [Compound 71]	< 1 µM	< 1 µM
Cc1nc2ccccn2c1C(=O)NCc1cccnc1 [Compound 13, 2-Methyl-N-(pyridin-3-ylmethyl)imidazo[1,2-a]pyridine-3-carboxamide]	> 20 µM	> 20 µM
COc1ccc(CCNC(=O)c2c(C)nc3ccccn23)cc1 [Compound 22, N-(4-Methoxyphenethyl)-2-methylimidazo[1,2-a]pyridine-3-carboxamide]	> 20 µM	> 20 µM
CCc1nc2ccc(Br)cn2c1C(=O)NCc1ccc(Oc2ccc(F)cc2)cc1 [Compound 189, 6-Bromo-2-ethyl-N-(4-(4-fluorophenoxy)benzyl)imidazo[1,2-a]pyridine-3-carboxamide]	< 1 µM	< 1 µM
CCc1nc2cc(Cl)ccn2c1C(=O)NCc1ccc2[nH]c(-c3ccc(OC(F)(F)F)cc3)nc2c1 [Compound 205, 7-Chloro-2-ethyl-N-((2-(4-(trifluoromethoxy)phenyl)-1H-benzo[d]imidazol-5-yl)methyl) imidazo[1,2-a]pyridine-3-carboxamide]	> 20 µM	> 20 µM
CCc1nc2cc(Cl)ccn2c1C(=O)NCc1ccc(N2CCC(=O)CC2)cc1 [Compound 269, 7-Chloro-2-ethyl-N-(4-(4-oxopiperidin-1-yl)benzyl)imidazo[1,2-a]pyridine-3-carboxamide]	1 to 20 µM (≈ 0.411 to 8.22 µg/mL)	< 1 µM
Cc1nc2c(C#N)cccn2c1C(=O)NCc1ccccc1 [Compound 42, N-Benzyl-8-cyano-2-methylimidazo[1,2-a]pyridine-3-carboxamide]	> 20 µM	> 20 µM
CC(C)c1nc2ccccn2c1C(=O)NCc1ccc(-c2ccccc2)cc1 [Compound 52, N-(Biphenyl-4-ylmethyl)-2-isopropylimidazo[1,2-a]pyridine-3-carboxamide]	1 to 20 µM (≈ 0.369 to 7.39 µg/mL)	1 to 20 µM (≈ 0.369 to 7.39 µg/mL)
CCc1nc2ccc(C)cn2c1C(=O)NCc1ccc(OC(F)(F)F)cc1 [Compound 65, 2-Ethyl-6-methyl-N-(4-(trifluoromethoxy)benzyl)imidazo[1,2-a]pyridine-3-carboxamide]	< 1 µM	< 1 µM
CCc1nc2ccc(Cl)cn2c1C(=O)NCc1ccc(N2CCOCC2)cc1 [Compound 74]	< 1 µM	< 1 µM
CCc1nc2ccc(Cl)cn2c1C(=O)NCc1ccc(-c2ccc(C#N)cc2)cc1 [Compound 121, 6-Chloro-N-((4′-cyanobiphenyl-4-yl)methyl)-2-ethylimidazo[1,2-a]pyridine-3-carboxamide]	< 1 µM	< 1 µM
CCc1nc2cc([N+](=O)[O-])ccn2c1C(=O)NCc1ccc(N2CCC(Oc3ccc(OC(F)(F)F)cc3)CC2)cc1 [Compound 170, 2-Ethyl-7-nitro-N-(4-(4-(4-(trifluoromethoxy)phenoxy)piperidin-1-yl)benzyl) imidazo[1,2-a]pyridine-3-carboxamide]	1 to 20 µM (≈ 0.584 to 11.7 µg/mL)	1 to 20 µM (≈ 0.584 to 11.7 µg/mL)
CCc1nc2ccc(F)cn2c1C(=O)NCc1ccc(OCc2ccc(OC(F)(F)F)cc2)cc1 [Compound 258, 2-Ethyl-6-fluoro-N-(4-(4-(trifluoromethoxy)benzyloxy)benzyl)imidazo[1,2-a]pyridine-3-carboxamide]	< 1 µM	< 1 µM
CCc1nc2ccc(Cl)cn2c1CNc1ccc(OC(F)(F)F)cc1 [Compound 240, N-((6-Chloro-2-ethylimidazo[1,2-a]pyridin-3-yl)methyl)-4-(trifluoromethoxy)aniline]	> 20 µM	> 20 µM
